Assay results reported in patent publication US20260327240A1, “1,4-CINEOLE DERIVATIVE AND INTERMEDIATE THEREOF, HERBICIDE CONTAINING SAID DERIVATIVE AS ACTIVE INGREDIENT, METHOD FOR USING HERBICIDE, AND METHOD FOR PREPARING AGROCHEMICAL COMPOSITION” (HOKKO CHEMICAL INDUSTRY CO., LTD., priority 2023, published 2026).

Key:
Type in all cases: in vivo
[1] = system: Echinochloa crus-galli var. formosensis; test: Test Example 1: herbicidal effect test by soil application in paddy rice; details: 120 g per 10 ares, 14 days after application
Description: (§1) Herbicidal Effect Test by Soil Application in Paddy Rice
(§2) Wagner pots with an area of […] were filled with paddy soil, followed by addition of water and incorporation of chemical fertilizer (N:P:K=16:16:16), after which puddling was performed. After that, seeds of Echinochloa crus-galli var. formosensis, broad-leaved weeds (Lindernia pyxidaria and Monochoria vaginalis), and Scirpus juncoides were sown at a depth of 0 cm to 1 cm, 30 seeds each. Immediately after sowing, the pots were flooded and a water depth of approximately 3 cm was maintained. Subsequent management was conducted in a glass greenhouse. Immediately thereafter, an emulsifiable concentrate prepared according to Formulation Example 5 using the compound shown below was diluted with water, and a specified amount of the diluted solution was applied by dropper. The amount of the active ingredient to be applied was equivalent to 120 g per 10 ares.
(§3) The present test was conducted in duplicate for each chemical concentration group, and the weed inhibition rate (%) was determined 14 days after chemical application using the following formula (Math. 1).

[2] = system: Monochoria vaginalis; test: as above; details: 120 g per 10 ares, 14 days after application
Description: as §1, §2, §3

[3] = system: Scirpus juncoides; test: as above; details: 120 g per 10 ares, 14 days after application
Description: as §1, §2, §3

[4] = system: Echinochloa crus-galli var. formosensis; test: Test Example 2: herbicidal effect test by application during growth period of paddy rice; details: 7 days after sowing, 120 g per 10 ares, 14 days after application
Description: (§4) Herbicidal Effect Test by Application During Growth Period of Paddy Rice
as §2, with “(Lindemia pyxidaria,” for “(Lindernia pyxidaria”, “Seven days after sowing,” for “Immediately thereafter,”, “ares. The test was conducted in duplicate for each chemical concentration group, and the herbicidal effect was evaluated 14 days after chemical application using the same criteria as in Test Example 1.” for “ares.”

[5] = system: Monochoria vaginalis; test: as above; details: 7 days after sowing, 120 g per 10 ares, 14 days after application
Description: as §4
as §2, with “(Lindemia pyxidaria,” for “(Lindernia pyxidaria”, “Seven days after sowing,” for “Immediately thereafter,”, “ares. The test was conducted in duplicate for each chemical concentration group, and the herbicidal effect was evaluated 14 days after chemical application using the same criteria as in Test Example 1.” for “ares.”

[6] = system: Scirpus juncoides; test: as above; details: 7 days after sowing, 120 g per 10 ares, 14 days after application
Description: as §4
as §2, with “(Lindemia pyxidaria,” for “(Lindernia pyxidaria”, “Seven days after sowing,” for “Immediately thereafter,”, “ares. The test was conducted in duplicate for each chemical concentration group, and the herbicidal effect was evaluated 14 days after chemical application using the same criteria as in Test Example 1.” for “ares.”

[7] = system: Digitaria ciliaris; test: Test Example 3: herbicidal effect test by soil application in upland field; details: 1 day after sowing, 120 g per 10 ares, 14 days after application
Description: (§5) Herbicidal Effect Test by Soil Application in Upland Field
(§6) Pots with an area of 36 cm^2 were filled with upland soil (alluvial loam), twenty seeds each of weeds of Digitaria ciliaris, Echinochloa crus-galli, Chenopodium album, and Amaranthus viridis were uniformly mixed with the top 1 cm layer of soil and the surface was lightly pressed down. One day after sowing, an emulsifiable concentrate prepared according to Formulation Example 5 using the compound shown below was diluted with water, and the diluted solution was sprayed onto the soil surface at a rate of 100 liters per 10 ares. The amount of the active ingredient to be applied was equivalent to 120 g per 10 ares. Fourteen days after chemical application, the herbicidal effect was evaluated according to the same criteria as in Test Example 1.

[8] = system: Echinochloa crus-galli; test: as above; details: 1 day after sowing, 120 g per 10 ares, 14 days after application
Description: as §5, §6

[9] = system: Digitaria ciliaris; test: Test Example 4: herbicidal effect test by stem and leaf treatment in upland field; details: 7 days after sowing, 120 g per 10 ares, 14 days after application
Description: (§7) Herbicidal Effect Test by Stem and Leaf Treatment in Upland Field
as §6, with “Seven days” for “One day”

[10] = system: Echinochloa crus-galli; test: as above; details: 7 days after sowing, 120 g per 10 ares, 14 days after application
Description: as §7
as §6, with “Seven days” for “One day”

[11] = system: Echinochloa crus-galli var. formosensis; test: Test Example 5: herbicidal effect test by soil application in paddy rice; details: 7.5 g per 10 ares, 14 days after application
Description: as §1
as §2, with “(Lindemia pyxidaria,” for “(Lindernia pyxidaria”, “7.5” for “120”
(§8) The present test was conducted in duplicate for each chemical concentration group, and the herbicidal effect was evaluated 14 days after chemical application using the same criteria as in Test Example 1.

[12] = system: Echinochloa crus-galli var. formosensis; test: Test Example 6: herbicidal effect test by application during growth period of paddy rice; details: 7 days after sowing, 7.5 g per 10 ares, 14 days after application
Description: as §4
as §2, with “(Lindemia pyxidaria,” for “(Lindernia pyxidaria”, “Seven days after sowing,” for “Immediately thereafter,”, “7.5” for “120”, “ares. The test was conducted in duplicate for each chemical concentration group, and the herbicidal effect was evaluated 14 days after chemical application using the same criteria as in Test Example 1.” for “ares.”

[13] = system: Digitaria ciliaris; test: Test Example 7: herbicidal effect test by soil application in upland field; details: 1 day after sowing, 7.5 g per 10 ares, 14 days after application
Description: as §5
as §6, with “7.5” for “120”

[14] = system: Echinochloa crus-galli; test: as above; details: 1 day after sowing, 7.5 g per 10 ares, 14 days after application
Description: as §5
as §6, with “7.5” for “120”

[15] = system: Digitaria ciliaris; test: Test Example 8: herbicidal effect test by stem and leaf treatment in upland field; details: 7 days after sowing, 7.5 g per 10 ares, 14 days after application; for inhibition at 75 g/ha: Digitaria ciliaris, read-out: weed inhibition rate
Description: as §7
as §6, with “Seven days” for “One day”, “7.5” for “120”

[16] = system: Echinochloa crus-galli; test: as above; details: 7 days after sowing, 7.5 g per 10 ares, 14 days after application
Description: as §7
as §6, with “Seven days” for “One day”, “7.5” for “120”

[17] = system: Monochoria vaginalis; test: Test Example 5: herbicidal effect test by soil application in paddy rice; details: 7.5 g per 10 ares, 14 days after application
Description: as §1
as §2, with “(Lindemia pyxidaria,” for “(Lindernia pyxidaria”, “7.5” for “120”
as §8

[18] = system: Scirpus juncoides; test: as above; details: 7.5 g per 10 ares, 14 days after application
Description: as §1
as §2, with “(Lindemia pyxidaria,” for “(Lindernia pyxidaria”, “7.5” for “120”
as §8

[19] = system: Monochoria vaginalis; test: Test Example 6: herbicidal effect test by application during growth period of paddy rice; details: 7 days after sowing, 7.5 g per 10 ares, 14 days after application
Description: as §4
as §2, with “(Lindemia pyxidaria,” for “(Lindernia pyxidaria”, “Seven days after sowing,” for “Immediately thereafter,”, “7.5” for “120”, “ares. The test was conducted in duplicate for each chemical concentration group, and the herbicidal effect was evaluated 14 days after chemical application using the same criteria as in Test Example 1.” for “ares.”

[20] = Echinochloa crus-galli, read-out: weed inhibition rate
[21] = Digitaria ciliaris, read-out: weed inhibition rate

CC(C)[C@]12C[C@@H](OCc3ccccc3F)[C@](C)(C[C@@H]1Cl)O2 [1-12]
≥ 80%: weed inhibition rate [1] | weed inhibition rate [2] | weed inhibition rate [3] | weed inhibition rate [4] | weed inhibition rate [5] | weed inhibition rate [6] | weed inhibition rate [7] | weed inhibition rate [8] | weed inhibition rate [9] | weed inhibition rate [10] | weed inhibition rate [11] | weed inhibition rate [12] | weed inhibition rate [13] | weed inhibition rate [14] | weed inhibition rate [15] | weed inhibition rate [16]

CC(C)[C@]12C[C@@H](OCc3ccccn3)[C@](C)(C[C@@H]1I)O2 [1-785, 2-[[(1S,2R,4R,5S)-5-iodo-4-isopropyl-1-methyl-7-oxabicyclo[2.2.1]heptan-2-yl]oxymethyl]pyridine]
≥ 80%: inhibition at 1200 g/ha [4, 20] | inhibition at 1200 g/ha ([6]; Schoenoplectiella juncoides, read-out: weed inhibition rate) | inhibition at 1200 g/ha [9, 21] | inhibition at 1200 g/ha [10, 20] | inhibition at 75 g/ha ([11]; Echinochloa crus-galli, 336 h, read-out: weed inhibition rate) | inhibition at 75 g/ha [12, 20] | inhibition at 75 g/ha [13, 21] | inhibition at 75 g/ha [14, 20] | inhibition at 75 g/ha [15] | inhibition at 75 g/ha [16, 20]

CC(C)C1C[C@]2(C)O[C@@]1(C(C)C)C[C@H]2OCc1ccccc1F (stereo partly drawn) [1-133, (1S,2R,4R)-2-[(2-fluorobenzyl)oxy]-4,5-isopropyl-1-methyl-7-oxabicyclo[2.2.1]heptane]
≥ 80%: weed inhibition rate [1] | weed inhibition rate [2] | weed inhibition rate [3] | weed inhibition rate [4] | weed inhibition rate [5] | weed inhibition rate [6] | weed inhibition rate [7] | weed inhibition rate [8] | weed inhibition rate [9] | weed inhibition rate [10] | weed inhibition rate [11] | weed inhibition rate [17] | weed inhibition rate [18] | weed inhibition rate [12] | weed inhibition rate [19] | weed inhibition rate [13] | weed inhibition rate [14] | weed inhibition rate [16]

CC(=O)O[C@@H]1C[C@]2(C)O[C@@]1(C(C)C)C[C@H]2OCc1ccccc1F [1-932, [(1R,2R,4S,5R)-5-[(2-fluorophenyl)methoxy]-4-methyl-1-isopropyl-7-oxabicyclo[2.2.1]heptan-2-yl]acetate]
≥ 80%: weed inhibition rate [1] | weed inhibition rate [4] | weed inhibition rate [11] | weed inhibition rate [12]

CC(C)[C@]12C[C@@H](OCc3ccccc3C(F)(F)F)[C@](C)(C[C@@H]1Br)O2 [1-700, (1S,2R,4R,5S)-5-bromo-1-methyl-4-isopropyl-2-[[2-(trifluoromethyl)phenyl]methoxy]-7-oxabicyclo[2.2.1]heptane]
≥ 80%: inhibition at 75 g/ha [15]

CC(C)[C@]12C[C@@H](OCc3ccccc3F)[C@](C)(C=C1OS(=O)(=O)C(F)(F)F)O2 [3-680]
≥ 80%: weed inhibition rate [1] | weed inhibition rate [3] | weed inhibition rate [4] | weed inhibition rate [6] | weed inhibition rate [7] | weed inhibition rate [8] | weed inhibition rate [9] | weed inhibition rate [10] | weed inhibition rate [11] | weed inhibition rate [12] | weed inhibition rate [13] | weed inhibition rate [14] | weed inhibition rate [15] | weed inhibition rate [16]
